We go through 9 molecules from ChEMBL document CHEMBL1201862, “PubChem BioAssay data set” (2004).

Among the test systems are LOX IMVI; CAKI-1; K562; SF-268; NCI-H460; ACHN; SR; SN12C; SW-620; A549; NCI-H522; HCT-15; TK-10; KM12; HOP-92; UACC-62; MCF7.
Assay in all cases: inhibition of tumour cell growth, NCI panel, 48 h

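Each compound was tested at five concentrations against cells in 96-well plates for 48 hours. GI50 = concentration required for 50% inhibition of growth.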 Active and inactive are the calls of the source. Cut-off read from the data, not from the text of the source: active = GI50 up to about 1.1 µM and inactive = higher.

On to `CC(C)c1cccc(C(C)C)c1/N=C(/N)C#N`, for which the GI50 in the experiment on LOX IMVI is 25.2 µM (inactive); with CAKI-1, > 100 µM (inactive); in the experiment with K562, 25.4 µM (inactive); in the experiment on SF-268, > 100 µM (inactive); with NCI-H460 it was > 44.9 µM (inactive); with ACHN, > 100 µM (inactive). For the same molecule, the GI50 is 46.2 µM (inactive) in the experiment with SR; > 100 µM (inactive) in the experiment with SN12C; 22.1 µM (inactive) in the experiment with SW-620; > 44.2 µM (inactive) with A549; 38 µM (inactive) with NCI-H522; 37.2 µM with HCT-15. The GI50 is > 100 µM (inactive) with TK-10, > 56 µM (inactive) in the experiment on KM12, > 41.5 µM (inactive) with HOP-92 and > 50.2 µM (inactive) with UACC-62.
As to `OCCCNc1ccnc2cc(Cl)ccc12`, the GI50 in the experiment with LOX IMVI, in the experiment on CAKI-1, with K562, in the experiment with SF-268, in the experiment on NCI-H460 and in the experiment with ACHN was > 100 µM (inactive) each time. The GI50 in the experiment on SR was > 100 µM (inactive); in the experiment on SN12C it was > 100 µM (inactive); in the experiment with SW-620, > 100 µM (inactive); in the experiment on A549 it was > 100 µM (inactive); in the experiment with NCI-H522, > 100 µM (inactive); in the experiment on HCT-15, over 100 µM. Besides, the GI50 was 21 µM (inactive) with TK-10, > 100 µM (inactive) in the experiment on KM12, > 100 µM (inactive) in the experiment with HOP-92 and > 100 µM (inactive) with UACC-62.
On to `N#CCCn1c(S)nnc1CCC(=O)Nc1ccc(Cl)cc1Cl`, for which the GI50 was 71.6 µM (inactive) in the experiment on LOX IMVI; > 100 µM (inactive) with CAKI-1; 41.4 µM (inactive) with K562; > 100 µM (inactive) in the experiment with SF-268; > 100 µM (inactive) with NCI-H460; > 100 µM (inactive) in the experiment on ACHN. Moreover, the GI50 in the experiment with SR was 21.7 µM (inactive); in the experiment on SN12C it was > 100 µM (inactive); with SW-620, > 100 µM (inactive); in the experiment with A549, 81.3 µM (inactive); in the experiment with NCI-H522 it was > 100 µM (inactive); in the experiment with HCT-15, over 100 µM. The GI50 in the experiment with TK-10, in the experiment on KM12, in the experiment on HOP-92 and in the experiment with UACC-62 was > 100 µM (inactive) throughout.
Take `O=c1oc(=O)c2oc3ccccc3oc1=2`: the GI50 with LOX IMVI, in the experiment with CAKI-1, in the experiment with K562, in the experiment on SF-268, with NCI-H460 and in the experiment with ACHN was > 100 µM (inactive) in each case. Besides, the GI50 is > 100 µM (inactive) in the experiment with SR; > 100 µM (inactive) with SN12C; > 100 µM (inactive) in the experiment with SW-620; > 100 µM (inactive) with A549; > 100 µM (inactive) in the experiment on NCI-H522; over 100 µM in the experiment with HCT-15. Besides, the GI50 in the experiment with TK-10, with KM12, with HOP-92 and in the experiment on UACC-62 was > 100 µM (inactive) in each case.
With `COc1cc2c(c(OC)c1O)-c1ccc(SC)c(=O)cc1C(NC(C)=O)CC2` (stereo not drawn), the GI50 in the experiment with LOX IMVI is < 0.01 µM (active); in the experiment on CAKI-1, 0.285 µM (active); with K562 it was < 0.01 µM (active); in the experiment on SF-268 it was < 0.0107 µM (active); in the experiment on NCI-H460, 0.0341 µM (active); in the experiment with ACHN, 0.557 µM (active). In addition, the GI50 with SR is 0.0112 µM (active); in the experiment with SN12C, 0.0518 µM (active); with SW-620 it was < 0.01 µM (active); in the experiment with A549, 0.04 µM (active); with NCI-H522, < 0.01 µM (active); in the experiment with HCT-15 it was 1.06 µM. Besides, the GI50 in the experiment on TK-10 was 2.29 µM (inactive); with KM12, < 0.01 µM (active); in the experiment with HOP-92 it was 0.0124 µM (active); in the experiment with UACC-62, < 0.0119 µM (active).
In the case of `OCC(O)COc1c(Cl)ccc(Cl)c1Cl` (stereo not drawn), the GI50 in the experiment on LOX IMVI, with CAKI-1, with K562, with SF-268, in the experiment on NCI-H460 and in the experiment with ACHN was > 100 µM (inactive) in each case. In addition, the GI50 in the experiment with SR was > 100 µM (inactive); in the experiment on SN12C it was > 100 µM (inactive); in the experiment on SW-620 it was > 100 µM (inactive); with A549, > 100 µM (inactive); in the experiment with NCI-H522 it was > 100 µM (inactive); in the experiment on HCT-15, over 100 µM. Moreover, the GI50 with TK-10, in the experiment on KM12, in the experiment with HOP-92 and with UACC-62 was > 100 µM (inactive) in each case.
Turning to `O=C(CCN1CCC(CCO)CC1)Nc1ccc2c(c1)C(=O)c1ccc(NC(=O)CCN3CCC(CCO)CC3)cc1C2=O`, the GI50 in the experiment on LOX IMVI is 8.39 µM (inactive); in the experiment on CAKI-1, 34.8 µM (inactive); in the experiment with K562 it was 8.05 µM (inactive); with SF-268 it was 11.3 µM (inactive); in the experiment on NCI-H460, 3.94 µM (inactive); with ACHN it was 41.9 µM (inactive). For the same molecule, the GI50 with SR is 7.69 µM (inactive); in the experiment with SN12C, 16.5 µM (inactive); in the experiment with SW-620 it was 4.79 µM (inactive); in the experiment on A549 it was 37.7 µM (inactive); with NCI-H522, 11.8 µM (inactive); with HCT-15, 27.7 µM. In addition, the GI50 with TK-10 was 24.7 µM (inactive); in the experiment with KM12 it was 2.69 µM (inactive); in the experiment with HOP-92, 29.8 µM (inactive); in the experiment with UACC-62, 9.04 µM (inactive).
On to `CNC(=O)OCc1nc(SC2CCCCO2)n(C)c1COC(=O)NC` (stereo not drawn), for which the GI50 with LOX IMVI, with CAKI-1, in the experiment on K562, in the experiment on SF-268, in the experiment on NCI-H460 and in the experiment on SR was > 100 µM (inactive) throughout. The GI50 was > 100 µM (inactive) in the experiment with MCF7; > 100 µM (inactive) with SN12C; > 100 µM (inactive) in the experiment on SW-620; > 100 µM (inactive) in the experiment with A549; > 100 µM (inactive) with NCI-H522; over 100 µM in the experiment with HCT-15. Also, the GI50 in the experiment with KM12, with HOP-92 and in the experiment with UACC-62 was > 100 µM (inactive) in each case.
As for `CC(=O)O[C@H]1C(N(C)C(=O)c2ccccc2)CC[C@]2(C)C3CC[C@@]4(C)C(CC(O)[C@@H]4C(C)N(C)C)[C@@H]3CCC12` (stereo partly drawn), the GI50 with LOX IMVI, with CAKI-1, in the experiment on K562, with SF-268, in the experiment on NCI-H460 and in the experiment with ACHN was > 100 µM (inactive) each time. For the same molecule, the GI50 is 76.9 µM (inactive) in the experiment on SR; > 100 µM (inactive) in the experiment with SN12C; > 100 µM (inactive) in the experiment with SW-620; > 100 µM (inactive) in the experiment on A549; > 100 µM (inactive) with NCI-H522; over 100 µM with HCT-15. Further, the GI50 with TK-10, in the experiment on KM12, in the experiment on HOP-92 and in the experiment with UACC-62 was > 100 µM (inactive) in each case.
